According to the supplement of paper PMC10307832:

Legend:
Test in all cases: relative viability (nuclei count vs DMSO), 5 days (fraction); higher = more cells survive
Pazopanib + Pemetrexed = compound: Cc1ccc(Nc2nccc(N(C)c3ccc4c(C)n(C)nc4c3)n2)cc1S(N)(=O)=O [Pazopanib] + Nc1nc2[nH]cc(CCc3ccc(C(=O)N[C@@H](CCC(=O)O)C(=O)O)cc3)c2c(=O)[nH]1 [Pemetrexed] (partner 0.2 µM)
Method in brief: (§1)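 A single step with final 0.05% Triton X-100, 1% formaldehyde and 1 ug/ml Hoechst fixed the cells and stained nuclei 5 days after treatment. Lung cancer cell lines in 1536-well plates had been treated by pin tool the day after seeding with one drug alone or a fixed anchor-drug dose plus five library-drug doses (not always all listed) in √10 steps, and nuclei were counted on 4× images. Relative viability is the ratio of nuclei in treated wells to nuclei in vehicle wells, taken as the median of duplicate plates.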

Ponatinib + Palbociclib = compound: Cc1ccc(C(=O)Nc2ccc(CN3CCN(C)CC3)c(C(F)(F)F)c2)cc1C#Cc1cnc2cccnn12 [Ponatinib] + CC(=O)c1c(C)c2cnc(Nc3ccc(N4CCNCC4)cn3)nc2n(C2CCCC2)c1=O [Palbociclib] (partner 0.5 µM)
Method in brief: as §1

Pazopanib + Pictilisib = compound: Cc1ccc(Nc2nccc(N(C)c3ccc4c(C)n(C)nc4c3)n2)cc1S(N)(=O)=O [Pazopanib] + CS(=O)(=O)N1CCN(Cc2cc3nc(-c4cccc5[nH]ncc45)nc(N4CCOCC4)c3s2)CC1 [Pictilisib] (partner 1 µM)
Method in brief: as §1

Ponatinib + Alpelisib = compound: Cc1ccc(C(=O)Nc2ccc(CN3CCN(C)CC3)c(C(F)(F)F)c2)cc1C#Cc1cnc2cccnn12 [Ponatinib] + Cc1nc(NC(=O)N2CCC[C@H]2C(N)=O)sc1-c1ccnc(C(C)(C)C(F)(F)F)c1 [Alpelisib] (partner 2 µM)
Method in brief: as §1

Row | Cell Line | relative viability (Pazopanib + Pemetrexed; first compound 0.1 µM) | relative viability (Pazopanib + Pemetrexed; first compound 0.3162 µM) | relative viability (Pazopanib + Pemetrexed; first compound 1 µM) | relative viability (Ponatinib + Palbociclib; first compound 0.002 µM) | relative viability (Ponatinib + Palbociclib; first compound 0.006325 µM) | relative viability (Ponatinib + Palbociclib; first compound 0.06325 µM) | relative viability (Ponatinib + Palbociclib; first compound 0.2 µM) | relative viability (Pazopanib + Pictilisib; first compound 0.01 µM) | relative viability (Pazopanib + Pictilisib; first compound 0.03162 µM) | relative viability (Pazopanib + Pictilisib; first compound 0.1 µM) | relative viability (Pazopanib + Pictilisib; first compound 0.3162 µM) | relative viability (Pazopanib + Pictilisib; first compound 1 µM) | relative viability (Ponatinib + Alpelisib; first compound 0.006325 µM) | relative viability (Ponatinib + Alpelisib; first compound 0.06325 µM) | relative viability (Ponatinib + Alpelisib; first compound 0.2 µM) | relative viability (Pazopanib + Pemetrexed; first compound 0.01 µM) | relative viability (Pazopanib + Pemetrexed; first compound 0.03162 µM) | relative viability (Ponatinib + Alpelisib; first compound 0.002 µM)
1 | NCI-H1648 | 0.662 | 0.77 | 0.742 | 0.266 | 0.245 | 0.246 | 0.252 | – | – | – | – | – | – | – | – | – | – | –
2 | NCI-H1395 | 0.886 | 0.938 | 0.932 | 0.626 | 0.671 | 0.572 | 0.47 | 0.534 | 0.746 | 0.685 | 0.661 | 0.674 | 1.03 | 1.09 | 0.804 | 0.744 | 0.83 | –
3 | NCI-H2347 | 0.429 | 0.426 | 0.386 | 0.504 | 0.441 | 0.451 | 0.404 | 0.513 | 0.648 | 0.417 | 0.601 | 0.548 | 1.1 | 1.18 | 1.02 | 0.444 | 0.421 | 1
4 | HCC-366 | 0.16 | 0.159 | 0.131 | 0.339 | 0.361 | 0.423 | 0.361 | 0.0942 | 0.155 | 0.116 | 0.164 | 0.159 | 0.43 | 0.69 | 0.376 | 0.298 | 0.141 | 0.375
5 | 201T | 0.318 | 0.333 | 0.323 | 0.367 | 0.359 | 0.351 | 0.328 | 0.602 | 0.603 | 0.709 | 0.742 | 0.695 | 1.03 | 1.08 | 1.02 | 0.369 | 0.331 | 1.02
6 | HCC-827 | 0.259 | 0.273 | 0.247 | 0.537 | 0.483 | 0.533 | 0.497 | 0.894 | 1.17 | 1.03 | 0.946 | 1.12 | 0.987 | 1.01 | 1.01 | 0.272 | 0.211 | 1.01
7 | NCI-H650 | 0.863 | 0.884 | 0.798 | 0.313 | 0.321 | 0.295 | 0.314 | 0.789 | 0.838 | 0.92 | 0.836 | 0.79 | 1.08 | 1.22 | 0.99 | 0.871 | 0.922 | 0.964
8 | NCI-H2023 | 0.271 | 0.22 | 0.216 | 0.447 | 0.456 | 0.402 | 0.438 | 0.173 | 0.202 | 0.278 | 0.25 | 0.277 | 0.639 | 0.666 | 0.61 | 0.18 | 0.206 | 0.642
9 | NCI-H596 | 0.478 | 0.522 | 0.528 | – | – | – | – | 0.383 | 0.379 | 0.417 | 0.381 | 0.39 | 0.449 | 0.495 | 0.399 | 0.472 | 0.494 | 0.428
10 | SK-LU-1 | 1.05 | 0.994 | 0.911 | 0.378 | 0.415 | 0.342 | 0.353 | 0.434 | 0.636 | 0.543 | 0.633 | 0.589 | 1.14 | 0.952 | 0.646 | 0.926 | 1.01 | 0.945
11 | A-427 | 0.934 | 1.05 | 1.05 | 0.511 | 0.535 | 0.528 | 0.438 | 0.612 | 0.705 | 0.692 | 0.746 | 0.782 | 1.06 | 1.07 | 0.919 | 0.942 | 1.04 | 1.08
12 | NCI-H460 | 0.0629 | 0.0703 | 0.0742 | 0.218 | 0.212 | 0.223 | 0.177 | 0.275 | 0.339 | 0.345 | 0.429 | 0.407 | 0.548 | 0.683 | 0.662 | 0.0583 | 0.0636 | 0.515
13 | NCI-H1703 | – | – | – | – | – | – | – | 0.246 | 0.24 | 0.207 | 0.198 | 0.173 | 0.355 | 0.225 | 0.186 | – | – | 0.299
14 | NCI-H1792 | 0.742 | 0.781 | 0.79 | 0.605 | 0.66 | 0.655 | 0.62 | – | 0.271 | 0.276 | 0.282 | 0.309 | 0.681 | 0.746 | 0.656 | – | 0.943 | 0.668
15 | Calu-6 | – | – | – | – | – | – | – | 0.874 | 1.01 | 0.993 | 0.849 | 0.877 | 1.04 | 1.02 | 0.685 | – | – | 0.956
16 | SW 1573 | 0.792 | 0.857 | 0.861 | 0.411 | 0.402 | 0.341 | 0.401 | 0.412 | 0.531 | 0.514 | 0.632 | 0.537 | 0.716 | 0.857 | 0.693 | 0.831 | 0.899 | 0.788
17 | RERF-LC-KJ | 0.443 | 0.432 | 0.541 | 1.11 | 1.22 | 1.27 | 0.971 | 0.447 | 0.562 | 0.559 | 0.495 | 0.487 | 0.739 | 1.02 | 0.889 | 0.498 | 0.517 | 0.904
18 | EMC-BAC-2 | 0.384 | 0.434 | 0.425 | 0.469 | 0.486 | 0.476 | 0.42 | 0.457 | 0.576 | 0.623 | 0.579 | 0.604 | 0.707 | 0.82 | 0.721 | – | 0.456 | 0.695
19 | LK-2 | 0.256 | 0.346 | 0.201 | 0.643 | 0.744 | 0.768 | 0.757 | 0.508 | 0.724 | 0.729 | 0.558 | 0.496 | 1.05 | 1.17 | 0.668 | 0.218 | 0.243 | 1.12
20 | NCI-H2126 | 0.68 | 0.693 | 0.721 | 0.365 | 0.34 | 0.374 | 0.333 | 0.443 | 0.472 | 0.559 | 0.444 | 0.531 | 0.769 | 0.851 | 0.852 | 0.662 | 0.703 | 0.779
